Measured values: US7453000B2, “Substituted oxazolobenzoisothiazole dioxide derivatives method for production and use thereof” (Sanofi-Aventis Deutschland GmbH, priority 2004, dated 2008)

target: T1, human PTP1B (Homo sapiens, UniProt P18031); test: Enzymatic test system for detecting inhibition of a phosphatase (recombinant hPTP1B; phosphopeptide dephosphorylation / p-nitrophenyl phosphate cleavage); type: biochemical; settings: inhibition of recombinant hPTP1B (1-299 aa, expressed in Sf9 cells); Table 2 does not say which substrate procedure (A phosphopeptide or B pNPP)
T1 construct: without the carboxy-terminal hydrophobic region (corresponding to 1-299 aa); made in house; host or cells: Sf9 insect cells (Spodoptera frugiperda), baculovirus (Bac-to-Bac, pFASTBAC)
T1 sequence (P18031 1-299): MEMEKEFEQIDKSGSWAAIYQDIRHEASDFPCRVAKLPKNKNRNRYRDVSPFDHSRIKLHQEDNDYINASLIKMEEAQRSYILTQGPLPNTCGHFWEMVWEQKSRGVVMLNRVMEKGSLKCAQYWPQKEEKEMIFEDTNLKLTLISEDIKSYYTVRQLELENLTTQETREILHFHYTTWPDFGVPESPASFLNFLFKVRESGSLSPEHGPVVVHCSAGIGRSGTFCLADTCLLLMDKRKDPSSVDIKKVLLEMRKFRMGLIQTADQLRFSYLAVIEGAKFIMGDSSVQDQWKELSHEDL
Procedure: The activity of the compounds was tested as follows:
Enzymatic test systems for detecting inhibition of a phosphatase
The compounds of the formula I were tested for their phosphatase-inhibiting effect in an in vitro assay. The enzyme preparation and the performance of the assay was carried out as follows.
Obtaining the Enzyme Preparation:
• Sf9 cells (=Spodoptera frugiperda cell type; obtainable from invitrogen) are cultured in Grace's supplemented medium (Gibco-BRL) with 10% heat-inactivated fetal calf serum (Gibco-BRL) in spinner flasks at 28° C. in accordance with the protocol of Summers and Smith (A Manual for Methods for Baculoviruns Vectors and Insect Culture Procedures [Bulletin No. 15555]. Texas A & M University, Texas Agricultural Experiment Station, College Station, Tex., 1987). • Construction of recombinant Baculovirus transfer vectors: cDNA coding for the regulatory and catalytic domains of human PTP1B, but without the carboxy-terminal hydrophobic region (corresponding to 1-299 aa) was obtained by polymerase chain reaction via primers with attached cloning sites and suitable cDNA templates (obtainable for example from invitrogen) and then cloned into baculovirus expression vectors (Amersham Pharmacia Biotech.). The recombinant baculoviruses were prepared with the aid of the Bac-to-Bac baculovirus expression system (obtainable from Gibco-BRL). The gene was cloned into the pFASTBAC donor plasmid (obtainable from Life Technologies). The resulting plasmid was transformed into competent DH10BAC Escherichia coli cells (obtainable from Life Technologies). After transposition and antibiotic selection, the recombinant plasmid DNA was isolated from selected E. coli colonies and then used for the transfection of Sf9 insect cells. The virus particle in the supernatant medium was amplified three times up to a viral stock volume of 500 ml. B) Production of Recombinant Protein: • Baculovirus infection of a 500 ml spinner culture of Sf9 cells was essentially carried out as described by Summers and Smith (see above). Sf9 cells at a density of 1-3×10^6 cells/ml were pelleted by centrifugation at 300 g for 5 min, the supernatant was removed, and the cells were resuspended in a density of 1×10^7 cells/ml in a suitable recombinant viral stock (MOI 10). After careful shaking at room temperature for 1.5 h, fresh medium was added in order to achieve a cell density of 1×10^6 cells/ml. The cells were then cultured in suspension at 28° C. for suitable periods after postinfection. C) Cellular Fractionation and Complete Cell Extracts of Infected Sf9 Cells: • After the postinfection, aliquots were subjected to an analysis of protein expression by SDS-PAGE and Western blot analysis. The cellular fractionation was carried out as described (Cromlish, W. and Kennedy, B. Biochem. Pharmacol. 52: 1777-1785, 1996). Complete cell extracts were obtained from 1 ml aliquots of the infected Sf9 cells after certain times postinfection. The pelleted cells (300×g, 5 min) were washed once in phosphate-buffered saline (4° C.), resuspended in 50 μl of water and disrupted by repeated freezing/thawing. Protein concentrations were determined with the aid of the Bradford method and bovine serum albumin as standard. Assay Procedure: A) Dephosphorylation of a Phosphopeptide: • This assay is based on the release of phosphate from a consensus substrate peptide which is detected in the nanomolar concentration range by the malachite green/ammonium molybdate method (Lanzefta, P. A., Alvarez, L. J., Reinach, P. S., Candia, O. A. Anal Biochem. 100: 95-97, 1979) adapted for the microtiter plate format. The dodecatrisphosphopeptide TRDIYETDYYRK (Biotrend, Cologne) corresponds to amino acids 1142-1153 of the catalytic domain of the insulin receptor and is (auto)phosphorylated on tyrosine residues 1146, 1150 and 1151. […]

SMILES	IC50 [µM]
O=S1(=O)Cc2cc(Nc3ncc(-c4ccc(C(F)(F)F)cc4)o3)ccc2N1 [Example 3]	15.7
CC(C)(C)c1cc(-c2cnc(Nc3ccc4c(c3)CS(=O)(=O)N4)o2)cc(C(C)(C)C)c1O [Example 4]	6.12
O=S1(=O)Cc2cc(Nc3ncc(-c4ccc(Br)s4)o3)ccc2N1 [Example 6]	9.44
O=C(O)c1cc(-c2cnc(Nc3ccc4c(c3)CS(=O)(=O)N4)o2)ccc1O [Example 7]	162
O=C(O)COc1ccc(-c2cnc(Nc3ccc4c(c3)CS(=O)(=O)N4)o2)cc1 [Example 8]	290

The remaining compounds from weak to strong by IC50, led by results:

IC50 [µM]	SMILES
12.6	O=S1(=O)Cc2cc(Nc3ncc(-c4cccc(Br)c4)o3)ccc2N1 [Example 2]
7.3	N#Cc1cccc(-c2cnc(Nc3ccc4c(c3)CS(=O)(=O)N4)o2)c1 [Example 1]
2.16	O=S1(=O)Cc2cc(Nc3ncc(-c4ccc(-c5ccc(Cl)cc5)cc4)o3)ccc2N1 [Example 5]
